This is an account of results in patent US7795278B2 (sanofi-aventis Deutschland GmbH, priority 2004, dated 2010).

In experiment [1] the test system is rat cardiomyocytes (H9c2 cell line). The experiment in a line: ATP consumption assay in cardiomyoblasts. In kind it is cell-based. To be noted: H9c2 cells, 15 min preincubation, 300 μM H2O2 for 1 hour, cellular ATP content by luciferase reaction. Here is the method:
ATP Consumption Assay in Cardiomyoblasts
The activity of the test substances in cells is ascertained by means of an ATP consumption assay. For this purpose, rat cardiomyocytes (H9c2 cell line) are seeded in a 96-well plate (40 000 cells per well, RPMI1640; 10% FCS) and kept at 37° C. and 5% CO2 for 16 hours. The cells are washed with PBS and incubated under identical conditions with various concentrations of the test substance in medium for 15 min. After addition of 300 μM H2O2, the cells are kept at 37° C., 5% CO2 for a further hour and lysed, and the cellular content of ATP is determined by means of luciferase reaction. The half-maximum effective concentration of the substances (EC50) is determined as the concentration at which the ATP content of the cells has reached half the value which can be measured with a maximally effective concentration of the same substance.
(§1) EC-50 values and apparent Ki values are determined in this way for all the following selected compounds: […]

For experiment [2], the target named is recombinantly expressed human PARP-1 enzyme (Homo sapiens, UniProt P09874). The experiment in a line: PARP enzyme assay (half-maximum inhibitor concentration). In kind it is biochemical. Particulars: DNA-activated PARP-1, 200 μM NAD, tritium-labeled NAD incorporation, room temperature, 1 hour, pH 8.0. The procedure:
Pharmacological Investigations PARP Enzyme Assay
The half-maximum inhibitor concentration is determined by incubating the substances to be tested with the DNA-activated, recombinantly expressed and purified PARP-1 enzyme. Specifically, various concentrations of the test substance are incubated in 50 μl of reaction solution, which contains 50 mM Tris, 5 mM MgCl2, 1 mM DTT, 200 μM NAD, 0.1 mCi/ml tritium-labeled NAD, 0.1 mg/ml DNA, 0.1 mg/ml histones, 2 μg/ml recombinantly expressed human PARP-1 enzyme, pH=8.0, at room temperature for 1 hour. The reaction is stopped by adding 150 μl of 20% trichloroacetic acid, and the radiolabeled protein constituents are precipitated. After incubation on ice for 10 minutes, the labeled, insoluble constituents are separated off through a glass fiber filter and, after washing with 20% trichloroacetic acid three times, the radioactivity incorporated by the PARP-1 enzyme is measured by radioluminescence.
IC-50 values were determined in this way for the following compounds: […]

Experiment [3] has as its target purified human PARP-1 enzyme (Homo sapiens, UniProt P09874). The experiment in a line: Enzyme inhibition assay with various substrate concentrations (apparent Ki). Particulars: various concentrations of tritium-labeled NAD, room temperature, 10 min; Michaelis-Menten, purely competitive inhibition assumed; read-out: app. Ki. In kind it is biochemical. Here is the method:
Enzyme Inhibition Assay with Various Substrate Concentrations
Apparent Ki values of the test substances are determined in an enzymatic assay using the purified human PARP-1 enzyme. Specifically, various concentrations of the tritium-labeled substrate NAD are incubated with an identical concentration of the test substance in 50 μl of reaction solution, which contains 50 mM tris, 5 mM MgCl2, 1 mM DTT, 0.1 mg/ml DNA, 0.1 mg/ml histones, 2 μg/ml recombinantly expressed human PARP-1 enzyme, pH=8.0, at room temperature for 10 min. The reaction is stopped by adding 150 μl of 20% trichloroacetic acid, and the radiolabeled protein constituents are precipitated. After incubation on ice for 10 minutes, the labeled, insoluble constituents are separated off through a glass fiber filter and, after washing with 20% trichloroacetic acid three times, the radioactivity incorporated by the PARP-1 enzyme is measured by radioluminescence. Evaluation of the incorporation rates determined in this way as a function of the concentration of the substrate NAD affords the apparent Ki values according to Michaelis-Menten kinetics, assuming that the mechanism of inhibition is purely competitive.
as §1

Sequence of purified human PARP-1 enzyme (P09874 whole entry): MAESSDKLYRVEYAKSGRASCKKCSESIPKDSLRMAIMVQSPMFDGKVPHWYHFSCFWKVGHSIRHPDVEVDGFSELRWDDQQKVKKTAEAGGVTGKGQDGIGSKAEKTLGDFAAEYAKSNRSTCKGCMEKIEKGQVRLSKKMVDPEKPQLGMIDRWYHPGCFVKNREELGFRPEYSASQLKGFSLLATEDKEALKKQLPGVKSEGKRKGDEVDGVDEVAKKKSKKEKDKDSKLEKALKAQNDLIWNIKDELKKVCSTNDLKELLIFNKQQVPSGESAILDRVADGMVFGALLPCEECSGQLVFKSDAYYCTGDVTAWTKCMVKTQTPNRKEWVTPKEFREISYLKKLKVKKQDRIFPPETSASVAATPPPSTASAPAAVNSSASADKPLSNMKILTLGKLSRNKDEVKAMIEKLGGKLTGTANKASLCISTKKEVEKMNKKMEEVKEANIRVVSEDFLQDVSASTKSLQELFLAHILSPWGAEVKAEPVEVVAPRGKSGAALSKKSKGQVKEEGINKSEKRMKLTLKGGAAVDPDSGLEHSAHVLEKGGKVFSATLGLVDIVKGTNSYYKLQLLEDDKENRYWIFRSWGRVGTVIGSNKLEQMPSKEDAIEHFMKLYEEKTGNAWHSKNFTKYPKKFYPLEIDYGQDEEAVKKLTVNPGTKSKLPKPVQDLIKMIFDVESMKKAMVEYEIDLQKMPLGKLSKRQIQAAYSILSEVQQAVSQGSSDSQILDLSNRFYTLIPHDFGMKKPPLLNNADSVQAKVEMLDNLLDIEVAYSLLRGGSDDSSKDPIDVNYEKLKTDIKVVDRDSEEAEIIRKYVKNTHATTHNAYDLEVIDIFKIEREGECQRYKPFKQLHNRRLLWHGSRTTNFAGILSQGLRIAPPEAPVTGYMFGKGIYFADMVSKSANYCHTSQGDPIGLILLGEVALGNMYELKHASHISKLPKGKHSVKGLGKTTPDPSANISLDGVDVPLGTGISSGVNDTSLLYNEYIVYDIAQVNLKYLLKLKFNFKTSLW
Sequence of recombinantly expressed human PARP-1 enzyme (P09874 whole entry): as above

As usually defined, the EC50 is the concentration giving half of the maximal effect. Higher therefore signals weaker potency. By IC50 is commonly meant the point on the concentration scale where inhibition reaches its midpoint. In the case of `O=c1[nH]cc(-c2ccc(CNCC(O)c3ccccc3)o2)c2c1CCCC2` (centres unmarked) [Example 72, 4-{5-[(2-hydroxy-2-phenyl-ethylamino)methyl]furan-2-yl}-5,6,7,8-tetrahydro-2H-isoquinolin-1-one], the EC50 in experiment [1] was found to be 380 nM. Also, the IC50 in experiment [2] worked out at 110 nM. In addition, the Ki in experiment [3] was 24 nM.

In experiment [1], `CCCCNCc1ccc(-c2c[nH]c(=O)c3c2CCCC3)o1` [Example 78, 4-(5-butylaminomethylfuran-2-yl)-5,6,7,8-tetrahydro-2H-isoquinolin-1-one] gave an EC50 of 520 nM. Moreover, the 50% inhibitory concentration (IC50) in experiment [2] is 250 nM. In experiment [3], the Ki was 40 nM.

Consider `O=C(NCCN1CCCC1)c1cccc(Nc2c[nH]c(=O)c3c2CCCC3)c1` [Example 24, 3-(1-Oxo-1,2,5,6,7,8-hexahydroisoquinolin-4-ylamino)-N-(2-pyrrolidin-1-ylethyl)benzamide], for which, in experiment [2], the IC50 was determined as 220 nM. The Ki in experiment [3] was found to be 31 nM.

`CC(=O)c1cccc(Nc2c(C)[nH]c(=O)c3c2CCCC3)c1` [Example 16, 4-(3-acetylphenylamino)-3-methyl-5,6,7,8-tetrahydro-2H-isoquinolin-1-one]: in experiment [1], the EC50 was determined as 200 nM. Besides, the IC50 in experiment [2] amounted to 90 nM. The Ki in experiment [3] was found to be 54 nM.

In experiment [1], `Cc1[nH]c(=O)c2c(c1-c1ccc(CN3CCCC3)o1)CCCC2` [Example 54, 3-methyl-4-(5-pyrrolidin-1-ylmethylfuran-2-yl)-5,6,7,8-tetrahydro-2H-isoquinolin-1-one] returned an EC50 of 330 nM. The IC50 in experiment [2] is 300 nM. In addition, the Ki in experiment [3] was determined as 15 nM.

Turning to `COc1cccc(S(=O)(=O)NCc2ccc(-c3c[nH]c(=O)c4c3CCCC4)o2)c1` [Example 86, 3-methoxy-N-[5-(1-oxo-1,2,5,6,7,8-hexahydroisoquinolin-4-yl)furan-2-ylmethyl]benzenesulfonamide], the IC50 in experiment [2] stood at 2480 nM.

Take `O=C(NCCc1cccnc1)c1cncc(-c2c[nH]c(=O)c3c2CCCC3)c1` [Example 40, 5-(1-oxo-1,2,5,6,7,8-hexahydroisoquinolin-4-yl)-N-(2-pyridin-3-ylethyl)nicotinamide]: the IC50 in experiment [2] turned out to be 4690 nM.

As for `CN1CCN(CNCc2ccc(-c3c[nH]c(=O)c4c3CCCC4)o2)CC1` [Example 73, 4-(5-{[(4-methylpiperazin-1-ylmethyl)amino]methyl}furan-2-yl)-5,6,7,8-tetrahydro-2H-isoquinolin-1-one], the IC50 in experiment [2] was determined as 660 nM.

Regarding `O=c1[nH]cc(-c2ccc(CNCN3CCC(N4CCCC4)CC3)o2)c2c1CCCC2` [Example 64, 4-(5-{[(4-pyrrolidin-1-ylpiperidin-1-ylmethyl)amino]methyl}furan-2-yl)-5,6,7,8-tetrahydro-2H-isoquinolin-1-one], in experiment [2], the IC50 amounted to 340 nM.

Take `O=C(c1cncc(-c2c[nH]c(=O)c3c2CCCC3)c1)N1CCCC1` [Example 25, 4-[5-(pyrrolidine-1-carbonyl)-pyridin-3-yl]-5,6,7,8-tetrahydro-2H-isoquinolin-1-one]: the IC50 in experiment [2] worked out at 7700 nM.

For the compound `CN(Cc1ccc(-c2c[nH]c(=O)c3c2CCCC3)o1)Cc1nc2c(s1)CCCC2` [Example 66, 4-(5-{[methyl-(4,5,6,7-tetrahydro-benzothiazol-2-ylmethyl)amino]-methyl}furan-2-yl)-5,6,7,8-tetrahydro-2H-isoquinolin-1-one], in experiment [2], the concentration for half-maximal inhibition (IC50) stood at 1180 nM.

As for `O=c1[nH]cc(-c2ccc(CN3CCSC3)o2)c2c1CCCC2` [Example 76, 4-(5-thiazolidin-3-ylmethylfuran-2-yl)-5,6,7,8-tetrahydro-2H-isoquinolin-1-one], in experiment [2], the IC50 is 440 nM.

In experiment [1], `Cc1[nH]c(=O)c2c(c1-c1ccc(CO)o1)CCCC2` [Example 9, 4-(5-Hydroxymethylfuran-2-yl)-3-methyl-5,6,7,8-tetrahydro-2H-isoquinolin-1-one] registered an EC50 of 1570 nM. Moreover, the IC50 in experiment [2] is 280 nM. Further, the Ki in experiment [3] amounted to 16 nM.

For the compound `CCCCNCc1ccc(-c2c(C)[nH]c(=O)c3c2CCCC3)o1` [Example 53, 4-(5-butylaminomethylfuran-2-yl)-3-methyl-5,6,7,8-tetrahydro-2H-isoquinolin-1-one], the IC50 in experiment [2] was determined as 240 nM.

As to `Cn1c(CNCc2ccc(-c3c[nH]c(=O)c4c3CCCC4)o2)nc2ccccc21` [Example 55, 4-(5-{[(1-methyl-1H-benzoimidazol-2-ylmethyl)amino]methyl}furan-2-yl)-5,6,7,8-tetrahydro-2H-isoquinolin-1-one], the IC50 in experiment [2] stood at 4540 nM.
